This data set can be described thus: Human HepG2 cell viability assay in 384 well format. The format is toxicity, cell-based. Details: dose 125 nL, time 70.5 hour; concentration not given beside the values. Particulars: HepG2 cells, read-out: Inhibition.

SMILES strings stand for the structures.

The source of these data is ChEMBL document CHEMBL3507680, “University of Dundee, Gates Library screen for HepG2 cell viability”.

In the case of `CCc1nccn1-c1cccc(C2CCN(C(=O)COC)CC2)n1`, the cytotoxicity at 70.5 h was found to be 0.0936%.
Regarding `CNC(=O)C1(C)CCCN(c2cnccn2)C1` (configuration not stated), the cytotoxicity at 70.5 h is -8.04%.
As for `CCn1cc(CN2CCN(CC(O)c3ccc(C)cc3C)CC2)cn1` (configuration not stated), the figure is -4.8%.
As for `O=C1NC[C@]2(CC[C@@H](C(=O)N3CCCC(O)C3)CC2)Oc2ccccc21` (some centres not stated), the figure is -7.1%.
As for `O=C(CCn1c(C(F)(F)F)cc2cccnc21)NC1CCCC1`, the figure is -3.77%; as for `O=C(c1nsc(Cl)c1Cl)N1CCc2nc3sccc3c(=O)n2CC1`, -3.17%; as for `Cn1cc(Cl)c(C(=O)N2CCc3nc4sccc4c(=O)n3CC2)n1`, -2.51%.
Regarding `CCC(CN1CCCC1)NC(=O)Cc1c(C)[nH]c2cc(C)cc(C)c12` (configuration not stated), the cytotoxicity at 70.5 h was -4.71%.
Take `CCC(CN1CCOCC1)NC(=O)Cc1c(C)[nH]c2cc(C)cc(C)c12` (configuration not stated): the cytotoxicity at 70.5 h came to 0.203%.
As for `O=C(Cn1cc(Cl)cn1)N1CCCC(c2cc3ccccc3cn2)C1` (configuration not stated), the figure is 23.4%; as for `COCC(=O)N1CCC(c2cc3ncccc3c(O)n2)CC1`, -7.25%.
As for `O=C(NCCO)C1(Cc2ccccc2-c2ccncc2)CCOCC1`, the cytotoxicity at 70.5 h was -7.35%.
For `O=C(CCC1CCCC1)N1CCC(c2cc3ncccc3c(O)n2)CC1` the value was 0.616%; for `CCc1nnsc1C(=O)NCCCC(CC)(CC)C1OCCO1`, -15.8%; for `CC(C)(C)CC(=O)N1CCc2sccc2C1`, -7.51%.
As for `CC1(C)COCCN1C(=O)CCc1nc(-c2ccc(Cl)cc2)no1`, the figure is -20%.
Consider `NC(=O)C(NC(=O)c1ccc(NC2CC2)nc1)c1ccccc1` (configuration not stated), for which the cytotoxicity at 70.5 h was -5.49%.
As for `CCCc1c(C(=O)N2CCN(c3ncccn3)CC2)cnn1C`, the figure is -10.6%.
For `Cc1cccc(CS(=O)(=O)Cc2ccn(C)c(=O)c2)c1` the value was -12.8%; for `COC(=O)C(NC(=O)c1ccc(NC2CC2)nc1)c1ccccc1` (configuration not stated), -5.38%; for `N#Cc1ccc(Cn2cncn2)c(F)c1`, -12.7%.
As for `COc1ccc(CNCCc2cccc(C(N)=O)c2)cc1O`, the figure is -6.24%; as for `O=C(NC1CCc2nccn2C1)c1ccc(NC2CC2)nc1` (configuration not stated), -12%.
On to `CC(CCc1cccn1C)NC(=O)Nc1cccn(C)c1=O` (configuration not stated), for which the cytotoxicity at 70.5 h is -10.4%.
As for `Cc1ccc(S(=O)(=O)N(C)Cc2cnccn2)cc1N(C)C`, the figure is -1.07%.
As for `O=C(CNc1nc(C2CC2)ns1)N1CCc2sccc2C1`, the cytotoxicity at 70.5 h was -10.8%.
On to `O=C(c1ccc[nH]1)N1CCN(C(c2ccccc2)C(F)(F)F)CC1` (configuration not stated), for which the cytotoxicity at 70.5 h was -7.16%.
For `O=C(Cc1ccon1)N(CCC(F)(F)F)C1CCCC1` the value was -3.19%; for `O=C(Cc1cccc(F)c1F)NS(=O)(=O)c1cncc(Cl)c1`, -2.5%; for `CC(C)C(C)NC(=O)Nc1cccn(C)c1=O` (configuration not stated), 4.29%.
As for `Cc1cc(F)ccc1N1CCCC(NS(=O)(=O)CCCF)C1=O` (configuration not stated), the figure is -6.3%; as for `CCS(=O)(=O)NC1CCCN(c2cc(C)ccc2F)C1=O` (configuration not stated), -1.61%; as for `COc1ccccc1CC(C)N(C)S(C)(=O)=O` (configuration not stated), -6.61%.
On to `CNS(=O)(=O)Cc1cccc(CNCc2ccsc2)c1`, for which the cytotoxicity at 70.5 h was -8.06%.
For `CCC(=O)N(C)Cc1cccc(OC(C)C)c1` the value was -5.79%.
As for `CSc1cccc(NC(=O)CCC(=O)Nc2nccs2)c1`, the figure is 14.4%.
As for `Cn1cc(NC(=O)c2cccc(-n3cnnn3)c2)cn1`, the figure is -13.6%.
For the compound `N#CC1(C(=O)N2CCOC(c3ccc(Cl)cc3)C2)CCCC1` (configuration not stated), the cytotoxicity at 70.5 h is -15.9%.
Take `Cc1cc(C)c(S(N)(=O)=O)cc1C(=O)NCCN1CCCCC1`: the cytotoxicity at 70.5 h was -16.1%.
In the case of `CN(Cc1ccc(F)cc1)C(=O)c1ccoc1CN1CCNC(=O)C1`, the cytotoxicity at 70.5 h was -18.2%.
Take `COc1ccccc1CCNC(=O)NCC(=O)Nc1cccnc1`: the cytotoxicity at 70.5 h is -0.968%.
For `CCC(=O)Nc1nnc2n(Cc3cccc(OC)c3)[nH]c(C)c1-2` the value was -0.289%; for `CC(C)(C)CNC(=O)c1ccc(C(=O)O)cn1`, 23.3%.
For `COc1ccccc1CC(C)(C)C(=O)NCC(=O)Nc1cccnc1` the value was 3.9%; for `CSCC(=O)NC1(c2cccc(Cl)c2)CC1`, -3.77%; for `NC(=O)CSCC(=O)NC1(c2cccc(Cl)c2)CC1`, 2.26%.
For `CC(C)c1nc(C2CCCN2C(=O)c2cc(Cl)c[nH]2)no1` (configuration not stated) the value was -2.12%; for `N#Cc1ccc(S(=O)(=O)NC(=O)C2CC(c3ccccc3)=NO2)cc1` (configuration not stated), -12.1%.
For the compound `O=C(Cc1ccc(F)cc1F)NCC(=O)Nc1ccccn1`, the cytotoxicity at 70.5 h was -5.81%.
For `CC(C)n1nnnc1-c1ccc(NC(=O)CCC(F)(F)F)cc1F` the value was -18%; for `CSC(C)C(=O)Nc1ccnn1-c1ccccc1C` (configuration not stated), 31.2%.
As for `O=C(NCC(O)c1cccc(F)c1)c1sccc1OC(F)F` (configuration not stated), the figure is -3.42%; as for `CCc1nc(Cn2cncc(Br)c2=O)no1`, -8.84%.
As for `CN1CCC(N(Cc2ccco2)S(=O)(=O)c2ccc(Br)cc2Cl)CC1`, the figure is 1.77%; as for `CN1CCC(N(Cc2ccco2)S(=O)(=O)c2cc(Br)ccc2Br)CC1`, 1.03%.
As for `CN1CCC(N(Cc2ccco2)S(=O)(=O)c2ccc(Cl)cc2)CC1`, the cytotoxicity at 70.5 h was -3.29%.
As for `Cc1ccc(OCC(=O)NS(=O)(=O)Cc2ccccc2)cc1`, the figure is -5.22%; as for `Cc1nnc(NCCc2coc(-c3ccc(F)cc3)n2)c(C#N)c1C`, -13.9%.
As for `O=C(Nc1ccc(-c2ccccc2)cn1)C1CCN(C(=O)C2CC2)CC1`, the figure is -1.82%.
For `Cc1ccc(-c2noc(CNCC3CN(C)CCO3)n2)cc1F` (configuration not stated) the value was -5.24%.
For `Cc1ccc2oc(N3CCN(CC(=O)NC(C)C)CC3)nc2c1`, the cytotoxicity at 70.5 h turned out to be 10.6%.
As for `Cc1cc(C)n(CC2CCCN2Cc2cccc(C#N)c2)n1` (configuration not stated), the figure is -3.89%; as for `Cc1ccc(CN(C)C(=O)NCC(C)(C)NS(C)(=O)=O)s1`, -3.9%; as for `CC(=O)c1cccc(OCC(=O)N(CC(C)C)C2CCN(C)CC2)c1`, 10.2%.
For `CC(C)CC(C)(CNC(=O)c1cnccn1)NC(=O)c1cnccn1` (configuration not stated) the value was -0.237%; for `O[C@@H]1CN(Cc2cc(Cl)cc3cccnc23)C[C@@H]1O`, -4.72%; for `Cc1ncc(S(=O)(=O)Nc2ccnn2C(C)C)[nH]1`, 3.96%.
For `COC(C)c1cccc(NCc2ccsc2)c1` (configuration not stated) the value was -2.9%; for `CC(C)(CNC(=O)C1(c2cccc(Br)c2)CCOCC1)C(=O)O`, -0.158%; for `O=C(NCC(O)c1cccs1)c1sccc1OC(F)F` (configuration not stated), -3.63%.
`CCc1ncc2c(n1)CN(CC1CCCCO1)CC2` (configuration not stated): the cytotoxicity at 70.5 h was determined as 8.28%.
`Cc1cc(C2CCCN(C(=O)COc3ccc(F)cc3F)C2)n[nH]1` (configuration not stated): the cytotoxicity at 70.5 h was -4.95%.
As for `CCOC(=O)N(C)C1CCN(Cc2ccsc2)CC1`, the figure is 19.3%; as for `CN(CCOc1ccc(C#N)cc1)CC1CC1`, 3.53%; as for `O=C(CCn1ccnn1)N1CCCC(n2cncn2)C1` (configuration not stated), -6.6%.
For the compound `CC1CN(C)CCN1C(=O)Cc1cc(Cl)c2c(c1)OCCO2` (configuration not stated), the cytotoxicity at 70.5 h was -6.51%.
For `COc1c(C2CCCN2CC(=O)Nc2nccs2)c(C)nn1C` (configuration not stated) the value was -2.85%.
As for `COc1cccc(CCC(=O)Nc2cnc3c(c2)c(C)nn3C)c1OC`, the figure is -14.1%; as for `Cc1noc(CNc2cc3c(cc2Cl)NC(=O)CO3)n1`, -10.2%.
With `COC1CCN(c2ccc(F)cc2CN(C)S(C)(=O)=O)CC1`, the cytotoxicity at 70.5 h is -8.29%.
For `COC1CCN(c2ccc(F)cc2CN(C)CC(N)=O)CC1` the value was -4.87%; for `Cc1cc2n(n1)CC(CNCc1cc(C)on1)CN2` (configuration not stated), -9.53%; for `CCOc1ccc2cc(C(=O)NCCNc3ccc(C)nn3)[nH]c2c1`, -8.09%.
As for `Cc1cc(C)n(CC2CCN(CC(O)COc3ccccc3)CC2)n1` (configuration not stated), the cytotoxicity at 70.5 h is -6.54%.
For `CCc1nnc2n1CCN(C(=O)C(C)Oc1ccc(C#N)cc1)C2` (configuration not stated) the value was -10.1%; for `CC(C)(C)c1nc(CNc2cc3c(cc2Cl)NC(=O)CO3)no1`, -7.93%.
On to `CCN(CC)C(=O)CS(=O)(=O)c1cc(OC)c(OC)cc1C`, for which the cytotoxicity at 70.5 h is -9.5%.
As for `COCCNC(=O)N1CCN(c2cc(F)ccc2F)CC1`, the figure is -10.1%.
On to `Cc1nc(NC(=O)C(C)N(C)Cc2ccc3c(c2)OCO3)sc1C` (configuration not stated), for which the cytotoxicity at 70.5 h was -5.16%.
Regarding `CCS(=O)(=O)N1Cc2ccccc2CC1C(=O)OCc1cc(C)no1` (configuration not stated), the cytotoxicity at 70.5 h is -7.63%.
Regarding `CCC(C)C(=O)N(C)Cc1cc(F)ccc1N1CCC(OC)CC1` (configuration not stated), the cytotoxicity at 70.5 h is -10.5%.
For `CC1COCCN1C(=O)Cc1cc(Cl)c2c(c1)OCCO2` (configuration not stated) the value was -12.3%; for `Cc1cc(C2CCCN(Cc3nc(Cc4ccccc4)no3)C2)n[nH]1` (configuration not stated), -10.9%.
For `O=C(CCn1ccnc1)N1CCCC(n2cncn2)C1` (configuration not stated) the value was 10.1%; for `O=C(CCCn1cccn1)N1CCCC(n2cncn2)C1` (configuration not stated), 1.52%.
As for `COc1ccc(OC)c(CNCc2c(C)nc3sc(C)cn23)c1`, the figure is 16.5%; as for `O=C(c1ccc(CN2CC(n3cccn3)C2)cc1)N1CCCC1`, -0.354%.
Consider `CNC(=O)c1ccc(CN(C)c2ccc(C(F)(F)F)cn2)cc1`, for which the cytotoxicity at 70.5 h is 6.65%.
For `Cc1ccccc1C1(C(=O)N2CCOC(C)C2)CCOCC1` (configuration not stated) the value was -5.13%.
For `COCCCNC(=O)c1c[nH]c2ccc(OC)cc12`, the cytotoxicity at 70.5 h was -1.45%.
In the case of `COC(=O)CCNC(=O)c1c[nH]cc1-c1cccc(OC)c1`, the cytotoxicity at 70.5 h is 3.36%.
For `COC(=O)C(C)CN(Cc1ccccc1)C(=O)CN1CCCNC1=O` (configuration not stated) the value was -0.248%.
